# What was measured:
# H295R cells [1] = experiment: cAMP assay in H295R adrenocortical cells; type: cell-based, human; settings: 20 μM, 2 h, absence or presence of 10 μM forskolin
# Experimental: (§1) Human NCI-H295R cells were maintained as described (33). HeLa cells were maintained in DMEM with 10% FBS. 90% confluent cells in 12-well dishes were incubated in serum-starved media for 1 h, then in 0.5 ml serum-starved media with 20 µM compounds or 0.2% DMSO for 2 h in the absence or presence of 10 μM forskolin (Sigma Aldrich). Media was collected and cAMP levels were measured as described (33), using a cAMP ELISA kit (Enzo). cAMP levels were normalized to protein content measured using a BCA Protein Assay Kit (Pierce). Immunoblot analysis of protein lysates was performed as described (34), using phospho-CREB(9198), Akt(4685), or CREB(9197) primary antibodies (Cell Signaling Technology) and goat anti-rabbit IgG-HRP secondary antibody (sc-2030, Santa Cruz).
# H295R cells [2] = experiment: Cortisol assay in H295R cells; type: cell-based, human; settings: 20 μM, 24 h, forskolin
# Experimental: H295R cells were treated with compounds as described in the cAMP assays, for 24 h. Media was collected and cortisol content was quantified using a Cortisol EIA Kit (Oxford Biomedical Research). Cortisol levels were normalized to protein concentrations in cell extracts, as described above.
# PDE7A = PDE7A (Homo sapiens (Human), UniProt Q13946); experiment: In vitro enzyme assay, PDE7; type: biochemical; settings: 15 nM cAMP
# PDE5A1 = PDE5A1 (Homo sapiens (Human), UniProt O76074); experiment: In vitro enzyme assay, PDE5; type: biochemical; settings: PDE5A, 500 nM cGMP
# PDE6C = PDE6C (Homo sapiens (Human), UniProt P51160); experiment: In vitro enzyme assay, PDE6; type: biochemical; settings: […] cGMP
# PDE10A1 [3] = target: T1, PDE10A1 (Homo sapiens (Human), UniProt Q9Y233); experiment: In vitro enzyme assay, PDE10; settings: read-out: IC50 PDE10; PDE10A, 30 nM cAMP
# HeLa cells [4] = experiment: CREB phosphorylation immunoblot in HeLa cells; type: cell-based; settings: as for H295R cells (20 μM)
# Experimental: as §1
# HeLa cells [5] = experiment: cAMP assay in HeLa cells; type: cell-based; settings: as for H295R cells (20 μM)
# Experimental: as §1
# H295R cells [6] = experiment: ATF-1 phosphorylation immunoblot in H295R cells; type: cell-based, human
# Experimental: as §1
# [7] = tested on: chronic lymphocytic leukemia cells from a first leukemia patient; experiment: Apoptosis of chronic lymphocytic leukemia cells, first patient; type: cell-based, human; parameters: % apoptosis: dose or concentration left out as unconfirmed; settings: for effect on apoptosis, in words: first patient, high background apoptosis
# From the text: (§2) In collaboration with other researchers, the effect of different PDE inhibitors on chronic lymphocytic leukemia cells was investigated. The lymphocytic leukemia cells were obtained from individual patients and cannot be maintained in cell culture.
# normal T cells = experiment: Apoptosis of normal T cells; type: cell-based; settings: for cell viability of normal T cells: with or without rolipram
# REC-1 cells = experiment: Apoptosis of REC-1 B cell leukemia cell line; type: cell-based; settings: for effect on apoptosis, in words: REC-1
# JVM-2 cells = experiment: Apoptosis of JVM-2 B cell leukemia cell line; type: cell-based; settings: for effect on apoptosis, in words: JVM-2
# [8] = tested on: chronic lymphocytic leukemia cells from a second leukemia patient; experiment: Apoptosis of chronic lymphocytic leukemia cells, second patient (JM168); type: cell-based, human
# From the text: as §2
# [9] = tested on: chronic lymphocytic leukemia cells from a third leukemia patient; experiment: Apoptosis of chronic lymphocytic leukemia cells, third patient (JM167); type: cell-based, human
# From the text: as §2
# PDE10A1 [10] = target: T1, PDE10A1; experiment: biochemical
# human PDE11A4 = human PDE11A4 (Homo sapiens (Human), UniProt Q9HCR9); experiment: biochemical
# [11] = compound 20 μM plus Rolipram (20 μM)
# T1 sequence (Q9Y233 other isoform, or with tags, fused parts or gaps): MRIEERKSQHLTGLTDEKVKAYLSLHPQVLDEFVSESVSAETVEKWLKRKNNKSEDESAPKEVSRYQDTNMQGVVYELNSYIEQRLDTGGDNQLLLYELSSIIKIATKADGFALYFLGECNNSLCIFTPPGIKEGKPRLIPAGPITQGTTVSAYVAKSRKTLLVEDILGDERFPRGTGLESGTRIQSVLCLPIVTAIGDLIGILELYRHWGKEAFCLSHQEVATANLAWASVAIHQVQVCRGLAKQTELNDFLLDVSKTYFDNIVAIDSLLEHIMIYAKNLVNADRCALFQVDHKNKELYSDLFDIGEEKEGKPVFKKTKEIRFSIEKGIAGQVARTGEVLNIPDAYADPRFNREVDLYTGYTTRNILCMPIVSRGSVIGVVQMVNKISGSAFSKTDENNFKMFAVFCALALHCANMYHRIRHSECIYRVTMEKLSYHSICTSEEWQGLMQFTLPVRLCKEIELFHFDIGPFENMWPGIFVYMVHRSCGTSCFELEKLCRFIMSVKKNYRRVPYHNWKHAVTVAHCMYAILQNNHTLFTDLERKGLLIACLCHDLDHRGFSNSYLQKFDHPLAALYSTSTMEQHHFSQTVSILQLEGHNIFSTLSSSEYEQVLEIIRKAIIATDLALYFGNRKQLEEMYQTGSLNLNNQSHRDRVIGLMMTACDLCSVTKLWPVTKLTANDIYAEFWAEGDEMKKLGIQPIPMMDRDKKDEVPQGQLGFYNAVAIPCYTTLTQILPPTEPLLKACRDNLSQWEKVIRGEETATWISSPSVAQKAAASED
# PDE7A, sequence (Q13946 whole entry): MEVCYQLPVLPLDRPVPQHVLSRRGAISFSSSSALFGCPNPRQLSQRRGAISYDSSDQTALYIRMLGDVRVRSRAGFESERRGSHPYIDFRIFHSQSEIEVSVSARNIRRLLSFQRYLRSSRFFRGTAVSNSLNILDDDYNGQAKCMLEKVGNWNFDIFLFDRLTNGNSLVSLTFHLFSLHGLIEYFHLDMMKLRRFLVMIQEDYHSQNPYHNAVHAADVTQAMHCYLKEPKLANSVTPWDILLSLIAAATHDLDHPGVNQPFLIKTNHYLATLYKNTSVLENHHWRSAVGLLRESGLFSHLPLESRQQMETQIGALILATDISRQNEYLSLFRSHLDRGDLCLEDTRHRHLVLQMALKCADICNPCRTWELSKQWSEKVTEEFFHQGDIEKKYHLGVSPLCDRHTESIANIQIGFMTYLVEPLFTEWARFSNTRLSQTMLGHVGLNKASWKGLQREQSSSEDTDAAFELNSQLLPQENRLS
# PDE6C, sequence (P51160 whole entry): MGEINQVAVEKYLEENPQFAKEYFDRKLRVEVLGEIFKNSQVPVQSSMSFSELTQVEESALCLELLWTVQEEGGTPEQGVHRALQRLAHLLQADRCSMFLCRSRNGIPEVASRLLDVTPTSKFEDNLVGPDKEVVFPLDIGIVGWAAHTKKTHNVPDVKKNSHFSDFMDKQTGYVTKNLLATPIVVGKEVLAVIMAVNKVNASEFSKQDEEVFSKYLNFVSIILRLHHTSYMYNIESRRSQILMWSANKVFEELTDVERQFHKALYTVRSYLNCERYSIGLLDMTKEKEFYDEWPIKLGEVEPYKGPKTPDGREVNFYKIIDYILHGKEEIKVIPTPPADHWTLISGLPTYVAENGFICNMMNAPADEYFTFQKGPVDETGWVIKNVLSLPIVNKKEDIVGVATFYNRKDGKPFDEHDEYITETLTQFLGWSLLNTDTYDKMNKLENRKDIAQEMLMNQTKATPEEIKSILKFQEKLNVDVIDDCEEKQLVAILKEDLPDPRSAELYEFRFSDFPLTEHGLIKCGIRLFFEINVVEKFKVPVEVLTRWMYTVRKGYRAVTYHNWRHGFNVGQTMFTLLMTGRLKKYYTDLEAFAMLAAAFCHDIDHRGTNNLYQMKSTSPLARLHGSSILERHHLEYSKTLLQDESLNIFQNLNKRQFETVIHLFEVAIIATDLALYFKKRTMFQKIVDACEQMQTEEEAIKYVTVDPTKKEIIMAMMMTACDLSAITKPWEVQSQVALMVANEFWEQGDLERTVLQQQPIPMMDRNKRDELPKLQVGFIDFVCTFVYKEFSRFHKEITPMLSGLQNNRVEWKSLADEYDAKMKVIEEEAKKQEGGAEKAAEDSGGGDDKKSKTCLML
# human PDE11A4, sequence (Q9HCR9 whole entry): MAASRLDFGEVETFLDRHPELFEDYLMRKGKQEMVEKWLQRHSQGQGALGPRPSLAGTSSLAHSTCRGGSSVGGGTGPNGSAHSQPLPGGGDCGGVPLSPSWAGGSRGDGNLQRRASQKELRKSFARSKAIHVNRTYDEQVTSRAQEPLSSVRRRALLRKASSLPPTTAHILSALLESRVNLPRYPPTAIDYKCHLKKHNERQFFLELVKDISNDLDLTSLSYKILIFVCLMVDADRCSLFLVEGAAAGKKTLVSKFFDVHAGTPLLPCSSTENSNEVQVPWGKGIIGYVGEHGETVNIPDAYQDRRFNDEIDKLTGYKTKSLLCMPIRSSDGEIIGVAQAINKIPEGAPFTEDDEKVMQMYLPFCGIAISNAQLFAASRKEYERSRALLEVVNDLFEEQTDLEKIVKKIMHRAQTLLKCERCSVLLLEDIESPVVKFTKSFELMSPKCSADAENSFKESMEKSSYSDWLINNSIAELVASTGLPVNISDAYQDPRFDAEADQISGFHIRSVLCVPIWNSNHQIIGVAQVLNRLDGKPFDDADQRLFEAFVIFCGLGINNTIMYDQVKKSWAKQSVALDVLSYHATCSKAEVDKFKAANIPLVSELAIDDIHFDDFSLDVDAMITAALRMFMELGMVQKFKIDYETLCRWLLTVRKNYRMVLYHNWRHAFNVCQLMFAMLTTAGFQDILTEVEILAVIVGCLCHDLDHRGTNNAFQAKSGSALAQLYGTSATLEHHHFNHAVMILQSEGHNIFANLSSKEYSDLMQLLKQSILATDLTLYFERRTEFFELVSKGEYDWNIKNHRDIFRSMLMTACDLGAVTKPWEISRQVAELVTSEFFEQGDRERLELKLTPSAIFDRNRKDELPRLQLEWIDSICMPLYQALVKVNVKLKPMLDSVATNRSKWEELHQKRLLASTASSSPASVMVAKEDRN
smiles,measurement,setting,value
O=c1nc2sc3ccccc3n2c(=O)n1-c1ccccc1 [BC11-19],cAMP levels in H295R cells,H295R cells [1],consistently elevates
same,cortisol production by H295R cells,H295R cells [2],consistently elevates
CCN(CC)C(=O)c1cc(-c2cccs2)nc2c1c(C)nn2-c1ccccc1C [BC11-15],IC50,PDE7A,43 µM
same,IC50,PDE5A1,43 µM
same,IC50,PDE6C,25 µM
same,IC50,PDE10A1 [3],35 µM
CCCSc1nc2c(c(=O)n1-c1ccccc1)SCC2 [BC11-38],cAMP levels in H295R cells,H295R cells [1],significantly increased
same,CREB phosphorylation in HeLa cells,HeLa cells [4],do not increase
same,cAMP levels in HeLa cells,HeLa cells [5],do not increase
same,cortisol production by H295R cells,H295R cells [2],significantly increased
same,phosphorylation of ATF1,H295R cells [6],PDE11A-specific increase
Cn1c(NC(=O)c2ccccc2NC(=O)c2ccccc2)nc2ccccc21 [BC11-4],% apoptosis,[7]; compound,66.9%
same,% apoptosis,[7]; compound alone (DMSO),70.1%
same,"effect on apoptosis, in words",[7],increase in apoptosis
same,% apoptosis of normal T cells,normal T cells; compound 20 μM alone (DMSO),14.3%
same,% apoptosis of normal T cells,normal T cells; [11],13.9%
same,cell viability of normal T cells,normal T cells,did not affect cell viability
same,Apoptosis (%) REC-1 Cells (B cell leukemia),REC-1 cells; 40 μM,100%
same,"effect on apoptosis, in words",REC-1 cells,increased apoptosis
same,Apoptosis (%) JVM-2 Cells (B cell leukemia),JVM-2 cells; 40 μM,32.3%
same,"effect on apoptosis, in words",JVM-2 cells,increased apoptosis
same,% apoptosis,"[8]; BC11-4 0.1 μM, Roli 0 μM",6.65%
same,% apoptosis,"[8]; BC11-4 0.1 μM, Roli 0.2 μM",10.4%
same,% apoptosis,"[8]; BC11-4 0.1 μM, Roli 2.0 μM",21.2%
same,% apoptosis,"[8]; BC11-4 0.1 μM, Roli 20 μM",28.8%
same,% apoptosis,"[8]; BC11-4 1.0 μM, Roli 0 μM",4.71%
same,% apoptosis,"[8]; BC11-4 1.0 μM, Roli 0.2 μM",10.8%
same,% apoptosis,"[8]; BC11-4 1.0 μM, Roli 2.0 μM",20.8%
same,% apoptosis,"[8]; BC11-4 1.0 μM, Roli 20 μM",29.6%
same,% apoptosis,"[8]; BC11-4 10.0 μM, Roli 0 μM",5.78%
same,% apoptosis,"[8]; BC11-4 10.0 μM, Roli 0.2 μM",4.93%
same,% apoptosis,"[8]; BC11-4 10.0 μM, Roli 2.0 μM",6.72%
same,% apoptosis,"[8]; BC11-4 10.0 μM, Roli 20 μM",15.8%
same,"response of cells (apoptosis), in words",[8]; second patient,did not respond
"COc1ccc(C2CNC(=O)C2)cc1OC1CCCC1 (stereo not drawn) [Rolipram, rolipram, reference compound]",% apoptosis,[7]; compound alone (DMSO),46.7%
same,"effect on apoptosis, in words",[7],not affected
same,% apoptosis,"[9]; Roli 0.2 μM, BC11-8 0 μM",13.2%
same,% apoptosis,"[9]; Roli 2.0 μM, BC11-8 0 μM",23.5%
same,% apoptosis,"[9]; Roli 20 μM, BC11-8 0 μM",29.9%
same,% apoptosis of normal T cells,normal T cells; compound 20 μM alone (DMSO),9.4%
same,Apoptosis (%) REC-1 Cells (B cell leukemia),REC-1 cells; 20 μM,56.7%
same,"effect on apoptosis, in words",REC-1 cells,not affected
same,Apoptosis (%) JVM-2 Cells (B cell leukemia),JVM-2 cells; 20 μM,18.5%
same,"effect on apoptosis, in words",JVM-2 cells,not affected
same,% apoptosis,"[8]; Roli 0.2 μM, BC11-4 0 μM",12.7%
same,% apoptosis,"[8]; Roli 2.0 μM, BC11-4 0 μM",24.9%
same,% apoptosis,"[8]; Roli 20 μM, BC11-4 0 μM",33.8%
C=CCSc1nnc2n(-c3ccccc3)c(=O)c3c(C)c(C)sc3n12 [BC11-8],% apoptosis,[7]; compound,63.3%
same,% apoptosis,[7]; compound alone (DMSO),60.1%
same,"effect on apoptosis, in words",[7],increase in apoptosis
same,% apoptosis,"[9]; BC11-8 0.1 μM, Roli 0 μM",6.31%
same,% apoptosis,"[9]; BC11-8 0.1 μM, Roli 0.2 μM",11.7%
same,% apoptosis,"[9]; BC11-8 0.1 μM, Roli 2.0 μM",22.7%
same,% apoptosis,"[9]; BC11-8 0.1 μM, Roli 20 μM",28.2%
same,% apoptosis,"[9]; BC11-8 1.0 μM, Roli 0 μM",7.63%
same,% apoptosis,"[9]; BC11-8 1.0 μM, Roli 0.2 μM",13.1%
same,% apoptosis,"[9]; BC11-8 1.0 μM, Roli 2.0 μM",19.5%
same,% apoptosis,"[9]; BC11-8 1.0 μM, Roli 20 μM",26.7%
same,% apoptosis,"[9]; BC11-8 10.0 μM, Roli 0 μM",21.8%
same,% apoptosis,"[9]; BC11-8 10.0 μM, Roli 0.2 μM",28.5%
same,% apoptosis,"[9]; BC11-8 10.0 μM, Roli 2.0 μM",40.1%
same,% apoptosis,"[9]; BC11-8 10.0 μM, Roli 20 μM",41.5%
same,"effect on apoptosis, in words","[9]; third patient, additive with rolipram",increased apoptosis
same,IC50,PDE10A1 [10],0.2 µM
same,% apoptosis of normal T cells,normal T cells; compound 20 μM alone (DMSO),10.3%
same,% apoptosis of normal T cells,normal T cells; [11],14.7%
same,cell viability of normal T cells,normal T cells,did not affect cell viability
same,Apoptosis (%) REC-1 Cells (B cell leukemia),REC-1 cells; 40 μM,66.2%
same,"effect on apoptosis, in words",REC-1 cells,increased apoptosis
same,IC50,human PDE11A4,0.05 µM
same,Apoptosis (%) JVM-2 Cells (B cell leukemia),JVM-2 cells; 40 μM,28.8%
same,"effect on apoptosis, in words",JVM-2 cells,increased apoptosis

# From patent US9173884B2, “Inhibitors of phosphodiesterase 11 (PDE11)” (TRUSTEES OF BOSTON COLLEGE, priority 2011, dated 2015)
